Entries after “also recorded” stand apart in the source; their conditions may differ. Like-named read-outs stand apart in the source and are kept apart here. Marks after values point to notes of the source that are not given here.
How the values were obtained:
mice = conditions: cited from earlier work
Balb/c male mice [1] = conditions: Cy 200 mg/kg ip once a week for 5 weeks; for Body weight / Epididymis weight / Epididymis weight (normalized to body weight) / Testes weight / Testes weight (normalized to body weight) / Sperm concentration: AS101 10 μg/mouse ip every other day; for Body weight / Epididymis weight / Epididymis weight (normalized to body weight) / Testes weight / Testes weight (normalized to body weight): sacrificed 5 weeks after last injection; for Sperm concentration: epididymal sperm
Experimental: In order to recover the motile epididymal spermatozoa, the two caudal epididymides were placed in M2 medium (Sigma), minced with fine scissors and incubated at 37° C. in an atmosphere of 95% air and 5% CO2 for 15 minutes prior to careful removal of all medium. Samples were then diluted to a final volume of 1 ml in M2. The concentration of sperm cells in the medium was then evaluated using a hemocytometer, and the samples were frozen at −80° C.
(§1) Ten mice were injected intraperitoneally (ip) with 200 mg/kg of cyclophosphamide (Cy) once a week for a period of 5 weeks (Cy group).
(§2) Another ten mice (Cy+AS101 group) were co-treated with Cy as described for the Cy group and with i.p. injections of AS101 at a dosage of 10 μg/mouse every other day, starting 1 week before the first Cy injection and continuing during the 5 weeks of Cy treatment.
(§3) An additional group of ten mice were injected with PBS only (PBS group), and another ten mice were treated with i.p. injections of AS101 at a dosage of 10 μg/mouse every other day (AS101 group), as described for the Cy+AS101 group. The animals from all groups were sacrificed 5 weeks after the last injection by cervical dislocation, and body weights were determined; thereafter, epididymides and testes were quickly dissected out, weighed and fixed.
Body weight, testes weight, testes weight normalized to body weight, epididymis weight, epididymis weight normalized to body weight, and sperm concentration were determined for the mice of each of the 4 treatment groups.

[2] = tested on: tumor models in mice and humans; conditions: cited from earlier work
cancer patients = conditions: AS101 in combination with chemotherapy; cited from earlier work
Balb/c male mice [3] = assay: Effect of treatments on testicular weight (procarbazine-induced testicular damage); format: in vivo; conditions: AS101 10 μg/mouse ip every other day, FIG. 3
Excerpt: Inbred Balb/c male mice, aged 5-6 weeks, were used. To ensure the fertility of the mice, each mouse was placed with two young healthy females.
(§4) The administration protocols for the four groups are depicted in FIG. 1.
Weights were normalized to the weight of the mouse. Each group contained 10 mice.

[4] = tested on: phosphorylated Akt (pAkt); format: in vivo, mice; conditions: relative to the PBS group; testes homogenate, densitometry; FIGS. 12A-B
Experimental: (§5) Frozen testes were homogenized in 1 ml of RIPA lysis buffer containing protease inhibitor cocktail and phosphatase inhibitor cocktail II. The tissue was then pulverized with a Dounce homogenizer and the homogenate subjected to centrifugation at 14,000 g for 15 minutes. The supernatant was collected and used for protein determination using Bradford reagent. Tissue samples were denatured in reducing buffer (62 mM Tris [pH 6.8], 10% glycerol, 2% sodium dodecyl sulfate [SDS], 5% f3-mercaptoethanol and 0.003% bromophenol blue) and separated by electrophoresis on an SDS (12%) polyacrylamide gel at 35 mA. The separated proteins were transferred onto a nitrocellulose membrane using the transfer buffer (39 mM glycine, 48 mM Tris [pH 8.3] and 20% methanol) at 20 V at 4° C. overnight. The membranes were stained with Ponceau S (0.005% in 1% acetic acid) to confirm equal amounts of protein, and blocked with 5% non-fat dry milk in Tris buffered saline with 0.1% TWEEN (TBS-T) for 1 hour at room temperature, and washed three times for 10 minutes each time in TBS-T. The following primary rabbit monoclonal antibodies were used: anti-human phospho-Akt1/2/3, anti-human GSK-3β and anti-human phospho-GSK-3β. Mouse antibody against chicken α-tubulin was used in order to confirm that the protein load was similar in all lanes. Membranes were incubated with the appropriate diluted antibody overnight at 4° C. After being washed three times for 10 minutes each time in TBS-T, the membranes were incubated for 1 hour at room temperature with peroxidase-conjugated goat anti-rabbit or goat anti-mouse IgG antibody. After washing, the membranes were analyzed by an enhanced chemiluminescence system according to the manufacturer's protocol (Pierce). Densitometry was conducted in order to quantify differences in band intensity using the Image J image-processing program (NIH, Bethesda, Md., USA). Results were normalized by comparison to the values in the PBS control group in each membrane.
(§6) Phosphorylation of Akt and GSK-3β was determined using gel electrophoresis and Western blotting, as described in the Materials and Methods section.

[5] = tested on: phosphorylated GSK-3β (pGSK-3β); format: in vivo, mice; conditions: of the PBS group; testes homogenate, densitometry; FIGS. 13A-B
Experimental: as §5, §6

Balb/c male mice [6] = format: in vivo; conditions: Cy 200 mg/kg ip weekly for 5 weeks, AS101 10 μg/mouse ip every other day; for testicular histology (seminiferous tubules, cross sections): FIGS. 7A-7D
Experimental: (§7) The removed testes were pierced with a needle and fixed in Bouin's fixative. After 24 hours, testes were washed three times and maintained in 70% ethanol. Samples were then embedded in paraffin and sectioned. Tissue sections (5 μm) were then stained using hematoxylin/eosin and examined randomly under a light microscope (AX70, Olympus, Tokyo, Japan) under ×100 magnification.
as §1, §2, §3

Balb/c male mice [7] = format: in vivo; conditions: females mated with treated males, Cy 200 mg/kg ip weekly for 5 weeks
Experimental: (§8) Fertility assays were performed on the “chemotherapy only” group, “chemotherapy+AS101” group, and control (PBS) group. Each male was placed with three young virgin females, aged 6 weeks. These females were examined daily for vaginal plugs. Once mating was documented, females were separated, and the pregnancies allowed to progress. […] The number of pregnant females and litter size was noted.
as §1, §2, §3

sperm nuclear DNA = format: in vivo, mice; conditions: Cy 200 mg/kg ip weekly for 5 weeks; AS101 10 μg/mouse ip every other day; FIG. 9
Experimental: as §1, §2, §3

testicular cells = assay: Analysis of testicular damage by DNA flow cytometry (procarbazine); format: in vivo; conditions: PCB single dose 200 mg/kg; propidium iodide flow cytometry; 5 mice per group; FIG. 6
Experimental: Quantification of DNA content in testicular cell populations by propidium iodide staining followed by flow cytometry is an objective, rapid, and robust method for the analysis spermatogenic damage. The method provides quantitative values for evaluating the changes in the proportion in the number of 1N (mature and immature haploid), 2N (diploid), and 4N (tetraploid) cells in the testis. The method was performed as previously described (Malkov at al., 1998). Briefly, testes were dissected, decapsulated, and the contents of the testes were transferred into a tube containing 5 ml ice-cold separation medium. Then, a collagenase solution was added and incubation was carried out for 5 minutes at 37° C. under vigorous shaking. The seminiferous cords were allowed to sediment to the bottom of the tube while being incubated on ice. The seminiferous cords were washed twice in 10 ml separation medium, re-suspended in separation medium containing 2.5 mg/ml trypsin and 1U/ml DNase I, incubated for 2 minutes at 37° C., and transferred to ice. Using a Pasteur pipette, the seminiferous cords was disintegrated into single cells and were then filtered through a […] nylon mesh, washed twice with separation medium (centrifugation at 200-300 g), and counted. For FACS analysis, testicular cells were brought to a concentration of 2-3×10^6 cells/ml in separation medium and diluted 1:1 with propidium iodide solution (10 mM Tris pH 8, 1 mM NaCl, 0.1% Nonidet P-40, 0.7 mg/ml Rnase A, and 0.05 mg/ml propidium iodide). Cells were analyzed by a Becton-Dickinson (San Francisco, Calif.) FACSort instrument, equipped with an argon laser, within 2 hours from staining. Excitation was at 488 nm and emission at 585 nm. The parameters measured for each cell were forward scatter (FSC-H), side scatter (SSC-H), and total fluorescence emitted from the cell (FL2-A).
(§9) Each group contained 5 mice.

Balb/c male mice [8] = assay: Histological evaluation of testicular damage (procarbazine); format: in vivo; conditions: three weekly injections of 200 mg/kg PCB; 5 mice per group; FIGS. 2A-2C
Experimental: as §7, §4, §9

Balb/c male mice [9] = assay: Evaluation of male fertility (procarbazine); format: in vivo; conditions: females mated with treated males, PCB single dose 200 mg/kg
Experimental: as §8
Each group contained 5 male mice.

SMILES | Body weight (Balb/c male mice [1]) [gram] | Epididymis weight (Balb/c male mice [1]) [mg] | Epididymis weight (normalized to body weight) (Balb/c male mice [1]) [mg/gram body weight] | Testes weight (Balb/c male mice [1]) [mg] | Testes weight (normalized to body weight) (Balb/c male mice [1]) [mg/gram body weight] | Sperm concentration (Balb/c male mice [1]) | average level of phosphorylated Akt (pAkt) [4] [%] | level of phosphorylated GSK-3β (pGSK-3β) [5] [%] | testicular histology (seminiferous tubules, cross sections) (Balb/c male mice [6]) | also measured
Cl[TeH]1(Cl)(Cl)OCCO1.N [AS101, ammonium trichloro(dioxyethylene-O,O′)tellurate] | 26.2 ± 1.0 | 34.2 ± 4.2 | 1.3 ± 0.1 | 105.7 ± 14.7 | 4.3 ± 0.3 | 22.5 ± 3.8 10^6 cells/ml | 175.3±28.4 | 130.3±16.9 | normal cellular content; also recorded: no effect on testicular histology | protection from hematopoietic damage (mice; lethal and sublethal doses of chemotherapeutic drugs, including cyclophosphamide): protect mice from hematopoietic damage; survival of mice (mice; mice treated with various cytotoxic drugs or radiation): increase the survival of mice; combination effect with Cy ([2]; treatment of tumor-bearing mice): synergistic effect with Cy; anti-tumoral effect ([2]; variety of tumor models in mice and humans): clear anti-tumoral effect; severity of neutropenia, thrombocytopenia and alopecia that accompany chemotherapy (cancer patients): significant reduction in the severity of neutropenia, thrombocytopenia, and alopecia; effect of AS101 alone on testicular weight (Balb/c male mice [3]; no PCB): no significant effect
O=P1(N(CCCl)CCCl)NCCCO1 (stereo not drawn) [Cy, cyclophosphamide] | 22.8 ± 2.1 | 25.1 ± 2.9 | 1.1 ± 0.1 | 46.3 ± 8.7 | 1.98 ± 0.16 | 8.7 ± 1.6* 10^6 cells/ml | 55.3±25.6 | 36.4±12.5 | empty and atrophic seminiferous tubules | percentage of impregnated females (Balb/c male mice [7]; FIG. 10): 20.0±4.2%; litter size of females which did achieve pregnancy (Balb/c male mice [7]; FIG. 11): 4.3±1.4; percentage of sperm cells with abnormal chromatin structure (% DFI) (sperm nuclear DNA): 44.7±1.0%; deaths (Balb/c male mice [1]): no deaths occurred; average percentage of damaged seminiferous tubules (Balb/c male mice [6]; FIG. 8): 76.0±10.8%
CNNCc1ccc(C(=O)NC(C)C)cc1 [PCB, Procarbazine] | – | – | – | – | – | – | – | – | – | percentage of cells with 1N (haploid) DNA in the testes (testicular cells): 24.2±4.0%; percentage of cells with 2N (diploid) DNA in the testes (testicular cells): 54.9±4.2%; percentage of cells with 4N (tetraploid) DNA in the testes (testicular cells): 4.7±0.4%; testicular histology (hematoxylin/eosin sections) (Balb/c male mice [8]): empty and atrophic seminiferous tubules; litter size (Balb/c male mice [9]; 5 male mice per group, FIG. 4): 1.4±2.9; percentage of impregnated females (Balb/c male mice [9]; FIG. 5): 20%; average testicular weight (Balb/c male mice [3]; PCB single dose 200 mg/kg, normalized to mouse weight, 10 mice per group): 1.9±0.2 mg per grams body weight

— patent publication US20110275709A1, “TELLURIUM-CONTAINING COMPOUNDS FOR AFFECTING MALE'S FERTILITY FOLLOWING CHEMOTHERAPY AND/OR RADIOTHERAPY” (BIOMAS LTD., priority 2009, published 2011)
